One experiment relates to guinea pig. The experiment can be described thus: PAF-induced bronchospasm in the guinea pig. In kind it is in vivo.
A further experiment relates to mouse. The experiment can be described thus: protection against PAF-induced lethal systemic shock in the mouse. In kind it is in vivo. The conditions noted are these: oral dose of 5 mg/kg, PAF 100 μg/kg. An excerpt:
Haemostas, 56(1) 40-44 (1986) and that of protection against lethal systemic shock in the mouse, which is described in J. Pharmacol. Exp. Ther 247(2) 617-23 (1988).

Another experiment deals with rabbit platelets. The experiment can be described thus: inhibition of the aggregation of rabbit platelets induced by the PAF-acether. The format is cell-based. As to conditions: Oryctolagus cuniculus, Platelet, PAF introduced into the medium at 4×10^-10 M, read-out: IC50 (concentration inhibiting 50% of the aggregation induced by the PAF). The text has this: Thus in vitro it is possible to study the inhibition of the aggregation of rabbit platelets induced by the PAF-acether according to the method described in Thrombosis Research 41 211-226 (1986). […] Therap.

The values that follow come from patent publication US5470855A, “Certain heterocyclic thiazole derivatives and their therapeutic use” (Sanofi, priority 1989, dated 1995).

As to `CC(C)c1cc(C(C)C)c(-c2csc(N(CCN(C)C)Cc3cccnc3)n2)c(C(C)C)c1` [Example 2], the “duration of complete inhibition of the bronchospasm” value in the experiment on guinea pig (IV dose of 1 mg/kg) and in the experiment on guinea pig (oral dose of 3 mg/kg) was “more than 96 hours” each time.

Take `Cc1cc(C)c(-c2csc(N(CCN(C)C)Cc3cccnc3)n2)c(C)c1` [Example 14, 2-(N-[2-N',N'-dimethylaminoethyl]N-[3-pyridylmethyl]amino)4-(2,4,6-trimethylphenyl)thiazole]: the “protection from the lethal systemic shock induced by the PAF” value (shortened to “protection”) in the experiment on mouse was “protect the mouse from the lethal systemic shock”.

As for `Cc1sc(N(CCN(C)C)Cc2cccnc2)nc1-c1ccc(Cl)cc1Cl` [Example 50, 2-(N-[2-N',N'-dimethylaminoethyl]N-[3-pyridylmethyl]amino)4-(2,4-dichlorophenyl) 5-methyl thiazole], the “protection” value in the experiment on mouse is “protect the mouse from the lethal systemic shock”.

For `Cc1oc(N(CCN(C)C)Cc2cccnc2)nc1-c1ccc(Cl)cc1Cl` [Example 79, 2(N-[2-N',N'-dimethylaminoethyl]N-[3-pyridylmethyl]amino) 4-(2,4-dichlorophenyl)5-methyl oxazole], in the experiment on mouse, the “protection” value is given as “protect the mouse from the lethal systemic shock”.

Turning to `CC(C)c1cc(C(C)C)c(-c2nc(N(CCN(C)C)Cc3cccnc3)sc2Br)c(C(C)C)c1` [Example 90, 2-(N-[2-N',N'-dimethylaminoethyl]N-[3-pyridylmethyl]amino) 5-bromo 4-(2,4,6-triisopropylphenyl) thiazole], in the experiment with mouse, the “protection” value is recorded as “protect the mouse from the lethal systemic shock”.

With `CC(C)c1cc(C(C)C)c(-c2nc(N(CCN(C)C)Cc3cccnc3)sc2Cl)c(C(C)C)c1` [Example 91, 2-(N-[2-N',N'-dimethylaminoethyl]N-[3-pyridylmethyl]amino) 5-chloro 4-(2,4,6-triisopropylphenyl)thiazole], the “protection” value in the experiment on mouse is reported as “protect the mouse from the lethal systemic shock”.

`Cc1nnc2n1-c1sc(CCC(=O)N3CCOCC3)cc1C(c1ccccc1Cl)=NC2` [WEB 2086]: in the experiment on rabbit platelets, the IC50 is 0.05 µM.
